Assay results reported in PubChem BioAssay (NCI).
“And” between values parts separate entries of the source, which are not always exact repeats. Equal entries are not always repeated.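 Grown in 96-well plates, cells were treated for 48 hours with each compound at five concentrations. Insufficient inhibition: endpoint recorded as highest concentration tested. The concentration for 50% growth inhibition is given as GI50. TGI denotes the concentration required for complete inhibition of growth.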

Legend:
Assay in all cases: DTP human tumour cell line panel, 48 h
[1] = system: K-562 leukemia
[2] = system: UACC-257 melanoma
[3] = system: HCT-116 colon
[4] = system: UACC-62 melanoma
[5] = system: SR leukemia
[6] = system: NCI-H522 lung
[7] = system: SF-295 CNS
[8] = system: SN12C renal
[9] = system: PC-3 prostate
[10] = system: U251 CNS
[11] = system: SK-OV-3 ovarian

## Nc1ccc(N=Nc2c(S(=O)(=O)O)cc3ccccc3c2S(=O)(=O)O)cc1
[1]
  TGI: > 100 µM
[2]
  TGI: > 100 µM
[3]
  TGI: > 100 µM
[4]
  TGI: > 100 µM
[5]
  TGI: > 100 µM
[6]
  TGI: > 100 µM
[7]
  TGI: > 100 µM
[8]
  TGI: > 100 µM
[9]
  TGI: > 100 µM
[10]
  TGI: > 100 µM

## COC(=O)C1CCCC2(C1)OCCO2 (configuration not stated)
[1]
  TGI: > 100 µM
[2]
  TGI: > 100 µM
[3]
  TGI: > 100 µM
[4]
  TGI: > 100 µM
[5]
  TGI: > 100 µM
[6]
  TGI: > 100 µM
[7]
  TGI: > 100 µM
[11]
  TGI: > 100 µM
[8]
  TGI: > 100 µM
[10]
  TGI: > 100 µM

## N[C@@H](Cc1ccccc1)C(=O)N1CCC[C@@H]1P(=O)(Oc1ccccc1)Oc1ccccc1
[1]
  TGI: > 100 µM
[2]
  TGI: > 100 µM
[3]
  TGI: > 100 µM
[4]
  TGI: > 100 µM
[7]
  TGI: > 100 µM
[11]
  TGI: > 100 µM
[8]
  TGI: > 100 µM
[9]
  TGI: > 100 µM
[10]
  TGI: > 100 µM

## O=[N+]([O-])C(=C(Nc1ccccc1)Nc1ccccc1)C(Cl)=C(Cl)Cl
[1]
  TGI: 33.4 µM
[2]
  TGI: 30.7 µM
[3]
  TGI: 25.5 µM
[4]
  TGI: 32.2 µM
[6]
  TGI: 39.6 µM
[7]
  TGI: 36.4 µM
[11]
  TGI: 68.5 µM
[8]
  TGI: 35.5 µM
[9]
  TGI: 29.6 µM
[10]
  TGI: 35.3 µM

## On1c(-c2ccccc2)c(-c2ccccc2N2CCCC2)c2ccccc21
[1]
  TGI: > 100 µM
[2]
  TGI: > 100 µM
[3]
  TGI: > 100 µM
[4]
  TGI: > 100 µM
[5]
  TGI: > 100 µM
[6]
  TGI: > 100 µM
[7]
  TGI: > 100 µM
[11]
  TGI: > 100 µM
[8]
  TGI: > 100 µM
[10]
  TGI: > 100 µM

## C[C@H](CCC(=O)O)[C@H]1CC[C@H]2[C@@H]3C(=O)C[C@@H]4C[C@H](O)CC[C@]4(C)[C@H]3C[C@H](O)[C@]12C
[1]
  TGI: > 100 µM
[2]
  TGI: > 100 µM
[3]
  TGI: > 100 µM
[4]
  TGI: > 100 µM
[5]
  TGI: > 100 µM
[6]
  TGI: > 100 µM
[8]
  TGI: > 100 µM
[9]
  TGI: > 100 µM
[10]
  TGI: > 100 µM

## CNc1cc2c(c3ccccc13)C(CCl)CN2C(=O)c1cc2cc(OC)c(OC)c(OC)c2[nH]1 (configuration not stated)
[4]
  TGI: 0.00209 µM
[5]
  TGI: 0.00402 µM
[11]
  TGI: 0.894 µM and 0.982 µM
[8]
  TGI: 0.00628 µM and 0.0118 µM
[9]
  TGI: 0.0223 µM and 0.116 µM
[10]
  TGI: 0.133 µM

## Cc1c2n(c(=O)[nH]c1=O)C1OC(CO)C(N=[N+]=[N-])C1O2 (configuration not stated)
[1]
  TGI: > 100 µM
[2]
  TGI: > 100 µM
[3]
  TGI: > 100 µM
[4]
  TGI: > 100 µM
[5]
  TGI: > 100 µM
[6]
  TGI: > 100 µM
[7]
  TGI: > 100 µM
[11]
  TGI: > 100 µM
[8]
  TGI: > 100 µM
[10]
  TGI: > 100 µM

## N#CNC(=NCc1ccccc1)N(Cc1ccccc1)Cc1ccccc1
[1]
  TGI: > 100 µM
[3]
  TGI: > 31.6 µM
[4]
  TGI: 23.4 µM
[5]
  TGI: > 72.9 µM
[6]
  TGI: > 31.6 µM
[7]
  TGI: 29 µM
[8]
  TGI: > 31.6 µM
[9]
  TGI: > 100 µM
[10]
  TGI: > 31.6 µM

## CCCNc1ncnc2c1ncn2C
[1]
  TGI: > 100 µM
[2]
  TGI: > 100 µM
[3]
  TGI: > 100 µM
[4]
  TGI: > 100 µM
[6]
  TGI: > 100 µM
[7]
  TGI: > 100 µM
[11]
  TGI: > 100 µM
[8]
  TGI: 98.2 µM
[9]
  TGI: > 100 µM
[10]
  TGI: > 100 µM

## Cc1nc(C)c(C(=O)NNC(=O)C[N+](C)(C)C)cc1C(=O)NNC(=O)C[N+](C)(C)C
[2]
  TGI: > 100 µM
[3]
  TGI: > 100 µM
[4]
  TGI: > 100 µM
[7]
  TGI: > 100 µM
[11]
  TGI: > 100 µM
[8]
  TGI: > 100 µM
[10]
  TGI: > 100 µM

## O=C1c2cc(-c3ccccc3)cnc2S(=O)(=O)N1c1ccc(Br)cc1
[2]
  TGI: > 100 µM
[3]
  TGI: > 100 µM
[4]
  TGI: > 100 µM
[5]
  TGI: 35 µM
[6]
  TGI: 54.6 µM
[7]
  TGI: 38.5 µM
[11]
  TGI: 53.9 µM
[8]
  TGI: > 100 µM
[9]
  TGI: > 100 µM
[10]
  TGI: 90.3 µM

## CCOC(=O)c1c(-c2ccc(O)c(OC)c2)c(C#N)c(=S)n(C2OC(CO)C(O)C(O)C2O)c1-c1ccccc1 (configuration not stated)
[1]
  TGI: > 100 µM
[2]
  TGI: > 100 µM
[3]
  TGI: > 100 µM
[4]
  TGI: > 100 µM
[5]
  TGI: > 100 µM
[7]
  TGI: > 100 µM
[8]
  TGI: > 100 µM
[9]
  TGI: > 100 µM
[10]
  TGI: > 100 µM

## CCCCCCCCCCCCCCCCNc1cccc2ccccc12
[1]
  TGI: > 100 µM
[2]
  TGI: > 100 µM
[3]
  TGI: > 100 µM
[4]
  TGI: > 100 µM
[5]
  TGI: > 100 µM
[6]
  TGI: > 100 µM
[7]
  TGI: > 100 µM
[11]
  TGI: > 100 µM
[8]
  TGI: > 100 µM
[10]
  TGI: > 100 µM

## CCNC(=S)NNC(=O)C12CC3CC(CC(C3)C1)C2
[1]
  TGI: > 100 µM
[2]
  TGI: > 100 µM
[3]
  TGI: > 100 µM
[4]
  TGI: > 100 µM
[6]
  TGI: > 100 µM
[7]
  TGI: > 100 µM
[11]
  TGI: > 100 µM
[8]
  TGI: > 100 µM
[9]
  TGI: > 100 µM
[10]
  TGI: > 100 µM

## COC(C)(C)C1(O)CC[C@@H](C)CC1=O (some centres not stated)
[2]
  TGI: > 100 µM
[3]
  TGI: > 100 µM
[4]
  TGI: > 100 µM
[5]
  TGI: > 100 µM
[6]
  TGI: > 100 µM
[7]
  TGI: > 100 µM
[11]
  TGI: > 100 µM
[8]
  TGI: > 100 µM
[9]
  TGI: > 100 µM
[10]
  TGI: > 100 µM

## CCOS(C)(=O)=O
[1]
  TGI: > 100 µM
[2]
  TGI: > 100 µM
[3]
  TGI: > 100 µM
[4]
  TGI: > 100 µM
[6]
  TGI: > 100 µM
[7]
  TGI: > 100 µM
[11]
  TGI: > 100 µM
[8]
  TGI: > 100 µM
[9]
  TGI: > 100 µM
[10]
  TGI: > 100 µM

## NC(=O)c1c(NC(=O)c2ccccc2)sc2c1CCC(=O)C2
[1]
  GI50: 0.402 µM
  TGI: > 100 µM
[2]
  GI50: 2.21 µM
  TGI: 6.13 µM
[4]
  GI50: 0.723 µM
  TGI: 2.51 µM
[6]
  GI50: 0.346 µM
  TGI: 2.14 µM
[7]
  GI50: 2.69 µM
  TGI: 7.94 µM
[11]
  GI50: 2.91 µM
  TGI: > 100 µM
[8]
  GI50: 0.612 µM
  TGI: 11.5 µM
[9]
  GI50: 0.319 µM
  TGI: 17.6 µM
[10]
  GI50: 0.955 µM
  TGI: 26.7 µM

## O=C1NC2c3c(I)sc(I)c3C(O)C2O1 (configuration not stated)
[1]
  TGI: > 100 µM
[2]
  TGI: > 100 µM
[3]
  TGI: > 100 µM
[4]
  TGI: > 100 µM
[5]
  TGI: > 100 µM
[7]
  TGI: > 100 µM
[11]
  TGI: > 100 µM
[8]
  TGI: > 100 µM
[9]
  TGI: > 100 µM
[10]
  TGI: > 100 µM

## O=C(O)[C@H]1CCCN1CP(=O)(O)CN1CCC[C@@H]1C(=O)O
[1]
  TGI: > 100 µM
[2]
  TGI: > 100 µM
[3]
  TGI: > 100 µM
[4]
  TGI: > 100 µM
[6]
  TGI: > 100 µM
[7]
  TGI: > 100 µM
[11]
  TGI: > 100 µM
[8]
  TGI: > 100 µM
[9]
  TGI: > 100 µM
[10]
  TGI: > 100 µM

## COC(=O)C(=Cc1cc(OC)c(OC)c(OC)c1-c1cc2c(cc1C1(C)OCCS1)OCO2)C(=O)OC (configuration not stated)
[1]
  TGI: > 100 µM
[2]
  TGI: > 100 µM
[3]
  TGI: > 100 µM
[4]
  TGI: > 100 µM
[5]
  TGI: > 100 µM
[6]
  TGI: 55.5 µM
[7]
  TGI: > 100 µM
[11]
  TGI: > 100 µM
[8]
  TGI: > 100 µM
[10]
  TGI: > 100 µM
